According to patent US8022089B2, “Isoxazoline-substituted benzamide compound and pesticide” (Nissan Chemical Industries, Ltd., priority 2004, dated 2011):

In the case of `CNc1cc(C2=NOC(c3cc(Cl)cc(Cl)c3)(C(F)(F)F)C2)ccc1C(=O)NCC(F)(F)F` (stereo not shown), the melting point is reported as 156 to 158 °C.
